Measured values taken from US5508450A, “Benzopyran derivatives” (Ono Pharmaceutical Co., Ltd., priority 1989, dated 1996).
Counter-ions that a name gives are not always drawn.

System: Lysozyme (dimer formation with fructose)
Assay: Inhibitory activity on Maillard reaction: formation of lysozyme dimer (lysozyme + fructose, SDS-PAGE, densitometer)
Format: biochemical
Settings: lysozyme 10 mg/ml, fructose 100 mM, 0.2M sodium phosphate buffer pH 7.4, 37° C., 3 days
Experimental: The inhibitory activity on Maillard reaction of the compounds of the present invention has confirmed by the screening system mentioned below. Lysozyme (10 mg/ml) and fructose (100 mM) were dissolved in 0.2M sodium phosphatic buffer solution (PH 7.4). The solution was incubated at a temperature of 37° C. for 3 days. A given volume of the reaction solution was separated using SDS-PAGE by the electrophoresis. After the electrophoresis, the SDS-PAGE was dyed by 0.2% Coomassie Brilliant Blue R-250 and then the dimer was determined by densitometer. The compounds of the present invention were added before incubation and the inhibitory activity of them against the formation of the dimer was examined in various concentrations and IC50 values were calculated.

Compound | IC50
Cc1c(C)c2c(c(C)c1O)CCC(C)(CCOC(=O)c1cccc(NC(=N)N)c1)O2 (centres unmarked) [1 (i), 2-(6-hydroxy-2,5,7,8-tetramethyl-3,4-dihydro-2H-benzo[1,2-b]pyran-2-yl)ethyl3-quanidinobenzoate hydrochloride] | 100 µM
Cc1c(C)c2c(c(C)c1O)CCC(C)(CCNC(=O)/C=C/c1ccc(NC(=N)N)cc1)O2 (centres unmarked) [2 (e), N-[2-(6-hydroxy-2,5,7,8-tetramethyl-3,4-dihydro-2H-benzo[1,2-b]pyran-2-yl)-ethyl]4-quanidinocinnam-amide hydrochloride] | 190 µM
Cc1cc(OCCC2(C)CCc3c(C)c(O)c(C)c(C)c3O2)ccc1NC(=N)N (centres unmarked) [5 (c), 3-methyl-4-guanidino-phenyl 2-(6-hydroxy-2,5,7,8-tetramethyl-3,4-dihydro-2H-benzo[1,2-b]pyran-2-yl)ethyl ether hydrochloride] | 500 µM
Cc1c(C)c2c(c(C)c1O)CCC(C)(CCOc1ccc(NC(=O)/C=C/c3ccc(NC(=N)N)cc3)cc1C(F)(F)F)O2 (centres unmarked) [7 (c), N-[3-trifluoromethyl-4-[2-(6-hydroxy-2,5,7,8-tetramethyl-3,4-dihydro-2H-benzo[1,2-b]pyran-2-yl)-ethoxy]phenyl]-4-guanidino-cinnamamide hydrochloride] | 4.8 µM
COc1cc(NC(=O)/C=C/c2ccc(NC(=N)N)cc2)ccc1OCCC1(C)CCc2c(C)c(O)c(C)c(C)c2O1 (centres unmarked) [7 (e)] | 30 µM
Cc1cc(OCCC2(C)CCc3c(C)c(O)c(C)c(C)c3O2)ccc1NC(=O)/C=C/c1ccc(NC(=N)N)cc1 (centres unmarked) [7 (f), N-[2-methyl-4-[2-(6-hydroxy-2,5,7,8-tetramethyl-3,4-dihydro-2H-benzo[1,2-b]pyran-2-yl)ethoxy]phenyl]-4-guanidinocinnamamidehydrochloride] | 18 µM
Cc1c2c(c3ccccc3c1O)OC(C)(CCOc1ccc(NC(=O)/C=C/c3ccc(NC(=N)N)cc3)cc1)CC2 (centres unmarked) [7 (n), N-[4-[2-(2,5-dimethyl-6-hydroxy-3,4-dihydro-2H-naphtho[1,2-b]pyran-2-yl)-ethoxy]phenyl]-4-guanidino-cinnamamide hydrochloride] | 10 µM
Cc1c(C)c2c(c(C)c1O)CCC(C)(CCCCOc1ccc(NC(=O)c3ccc(NC(=N)N)cc3)cc1)O2 (centres unmarked) [9 (a), N-[4-[4-(6-hydroxy-2,5,7,8-tetramethyl-3,4-dihydro-2H-benzo[1,2-b]pyran-2-yl)-butoxy]phenyl]-4-guanidinobenzamidehydrochloride] | 10 µM
Cc1c(C)c2c(c(C)c1O)CCC(C)(CCCCSc1ccc(NC(=O)/C=C/c3ccc(NC(=N)N)cc3)cc1)O2 (centres unmarked) [9 (d), N-[4-[4-(6-hydroxy-2,5,7,8-tetramethyl-3,4-dihydro-2H-benzo[1,2-b]pyran-2-yl)-butylthio]phenyl]-4-guanidinocinnamamidehydrochloride] | 5.4 µM
Cc1c(C)c2c(c(C)c1O)CCC(C)(CCCCOc1ccc(NC(=O)/C=C/c3ccc(NC(=N)N)cc3)cc1C(F)(F)F)O2 (centres unmarked) [9 (l), N-[4-[4-(6-hydroxy-2,5,7,8-tetramethyl-3,4-dihydro-2H-benzo[1,2-b]pyran-2-yl)-butoxy]-3-trifluoromethyl-phenyl]-4-guanidino-cinnamamide hydrochloride] | 6.6 µM
CCOC(=O)c1cc(NC(=N)N)cc(C(=O)Nc2ccc(OCCCCC3(C)CCc4c(C)c(O)c(C)c(C)c4O3)cc2)c1 (centres unmarked) [9 (m), N-[4-[4-(6-hydroxy-2,5,7,8-tetramethyl-3,4-dihydro-2H-benzo[1,2-b]pyran-2-yl)-butoxy]phenyl]-3-guanidino-5-ethoxycarbonylbenzamidehydrochloride] | 9 µM

More lines, in order of falling IC50, values ahead:

IC50 | Compound
340 µM | COc1c(O)c(C)c2c(c1OC)OC(C)(CCOC(=O)c1ccc(NC(=N)N)cc1)CC2 (centres unmarked) [1 (d), 2-(2,5-dimethyl-6-hydroxy-7,8-dimethoxy-3,4-di-hydro-2H-benzo[1,2-b]pyran-2-yl)-ethyl4-quanidinobenzoate hydrochloride]
200 µM | Cc1c(C)c2c(c(C)c1O)CCC(C)(CCOc1ccc(NC(=O)c3cccc(NC(=N)N)c3)cc1)O2 (centres unmarked) [7 (a), N-[4-[2-(6-hydroxy-2,5,7,8-tetramethyl-3,4-dihydro-2H-benzo[1,2-b]pyran-2-yl)-ethoxy]phenyl]-3-guanidino-benzamide hydrochloride]
150 µM | Cc1c2c(c3ccccc3c1O)OC(C)(CCNC(=O)c1cccc(NC(=N)N)c1)CC2 (centres unmarked) [2 (f), hydrochloride]
74 µM | Cc1c(C)c2c(c(C)c1O)CCC(C)(CCOc1ccc(NC(=N)N)cc1C(F)(F)F)O2 (centres unmarked) [5 (b), 2-trifluoromethyl-4-guanidinophenyl 2-(6-hydroxy-2,5,7,8-tetra-methyl-3,4-dihydro-2H-benzo[1,2-b]pyran-2-yl)ethyl ether hydrochloride]
54 µM | Cc1c(C)c2c(c(C)c1O)CCC(C)(CCOc1ccc(NC(=O)COc3ccc(NC(=N)N)cc3)cc1)O2 (centres unmarked) [7 (l), N-[4-[2-(6-hydroxy-2,5,7,8-tetramethyl-3,4-dihydro-2H-benzo[1,2-b]pyran-2-yl)-ethoxy]phenyl]-4-guanidinophenoxyacetamidehydrochloride]
48 µM | CC(=O)Nc1cc(NC(=O)/C=C/c2ccc(NC(=N)N)cc2)ccc1OCCC1(C)CCc2c(C)c(O)c(C)c(C)c2O1 (centres unmarked) [7 (d), N-[3-acetoamide-4-[2-(6-hydroxy-2,5,7,8-tetramethyl-3,4-dihydro-2H-benzo[1,2-b]-pyran-2-yl)ethoxy]phenyl]-4-guanidinocinnamamidehydrochloride]
22 µM | Cc1c2c(c3ccccc3c1O)OC(C)(CCOc1ccc(NC(=N)N)cc1)CC2 (centres unmarked) [5 (f), 4-guanidinophenyl 2-(2,5-dimethyl-6-hydroxy-3,4-dihydro-2H-naphtho[1,2-b]-pyran-2-yl)ethyl ether hydrochloride]
19 µM | Cc1c(C)c2c(c(C)c1O)CCC(C)(CCSc1ccc(NC(=O)c3ccc(NC(=N)N)cc3)cc1)O2 (centres unmarked) [7 (h), N-[4-[2-(6-hydroxy-2,5,7,8-tetramethyl-3,4-dihydro-2H-benzo[1,2-b]pyran-2-yl)-ethylthio]phenyl]-4-guanidinobenzamidehydrochloride]
17 µM | Cc1c(C)c2c(c(C)c1O)CCC(C)(CCSc1ccc(NC(=O)CSc3ccc(NC(=N)N)cc3)cc1)O2 (centres unmarked) [7 (t), N-[4-[2-(6-hydroxy-2,5,7,8-tetramethyl-3,4-dihydro-2H-benzo[1,2-b]pyran-2-yl)-ethylthio]phenyl]-4-guanidinophenylthioacetamidehydrochloride]
12 µM | Cc1c(C)c2c(c(C)c1O)CCC(C)(CCOc1ccc(NC(=O)c3ccc(NC(=N)N)cc3)cc1C(F)(F)F)O2 (centres unmarked) [7 (k), N-[4-[2-(6-hydroxy-2,5,7,8-tetramethyl-3,4-dihydro-2H-benzo[1,2-b]pyran-2-yl)-ethoxy]-3-trifluoromethyl-phenyl]-4-guanidinobenzamidehydrochloride]
12 µM | Cc1c(C)c2c(c(C)c1O)CCC(C)(CCOc1ccc(NC(=O)c3cccc(NC(=N)N)c3)cc1C(F)(F)F)O2 (centres unmarked) [7 (m), N-[4-[2-(6-hydroxy-2,5,7,8-tetramethyl-3,4-dihydro-2H-benzo[1,2-b]pyran-2-yl)-ethoxy]-3-trifluoromethyl-phenyl]-3-guanidinobenzamidehydrochloride]
4.8 µM | Cc1c2c(c3ccccc3c1O)OC(C)(CCCCSc1ccc(NC(=O)c3ccc(NC(=N)N)cc3)cc1)CC2 (centres unmarked) [9 (j), N-[4-[4-(2,5-dimethyl-6-hydroxy-3,4-dihydro-2H-naphtho[1,2-b]pyran-2-yl)-butylthio]phenyl]-4-guanidinobenzamidehydrochloride]
